We go through 17 compounds from patent US20250288573A1 (H. LEE MOFFITT CANCER CENTER AND RESEARCH INSTITUTE, INC., priority 2018, published 2025).

Like-named read-outs stand apart in the source and are kept apart here.

The subject of assay [1] is T cells expanded from patients with melanoma. Briefly: Cytokine assays (IL-2, IFN-γ) in T cells expanded from patients with melanoma. The format is cell-based, human. The text has this:
Veh=vehicle-treated cells DMSO 0.1%

In another assay the target is T1, CRBN (Homo sapiens, UniProt Q96SW2).
T1 construct: endogenous in cells; host or cells: primary human T cells / CD8+ T cells from peripheral blood
T1 sequence (Q96SW2 whole entry): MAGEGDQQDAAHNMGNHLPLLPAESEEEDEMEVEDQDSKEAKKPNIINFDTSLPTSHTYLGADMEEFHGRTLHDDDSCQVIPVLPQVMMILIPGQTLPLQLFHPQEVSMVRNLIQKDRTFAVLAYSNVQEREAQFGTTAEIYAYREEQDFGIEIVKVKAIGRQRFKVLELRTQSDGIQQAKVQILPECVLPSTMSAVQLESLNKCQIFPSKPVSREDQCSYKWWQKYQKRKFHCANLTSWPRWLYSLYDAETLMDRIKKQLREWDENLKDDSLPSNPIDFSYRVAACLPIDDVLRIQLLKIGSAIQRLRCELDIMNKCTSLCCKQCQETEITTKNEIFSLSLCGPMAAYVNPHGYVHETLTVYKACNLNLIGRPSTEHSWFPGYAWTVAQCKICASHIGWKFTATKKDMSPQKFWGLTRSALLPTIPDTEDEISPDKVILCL
Briefly: Western blot for expression of CRBN relative to vinculin in human T cells (CRBN degradation). Format: cell-based. As to conditions: for remaining activity at 10 µM / remaining activity at 0.01 µM: read-out: Relative Density of CRBN (% of DMSO). The text has this: Bortez=bortezomib; MG132=proteasome inhibitor; MLN4924=NEDD8 inhibitor.
This assay is a standard Western blot assay for expression of CRBN relative to vinculin.
[…] 0.1 percent DMSO was used as a vehicle control.

The target in a further assay is T2, cereblon (Mus musculus, UniProt Q8C7D2).
T2 construct: from tissue; host or cells: spleen: purified splenic T cells and total splenocytes of treated mice
T2 sequence (Q8C7D2 1-445): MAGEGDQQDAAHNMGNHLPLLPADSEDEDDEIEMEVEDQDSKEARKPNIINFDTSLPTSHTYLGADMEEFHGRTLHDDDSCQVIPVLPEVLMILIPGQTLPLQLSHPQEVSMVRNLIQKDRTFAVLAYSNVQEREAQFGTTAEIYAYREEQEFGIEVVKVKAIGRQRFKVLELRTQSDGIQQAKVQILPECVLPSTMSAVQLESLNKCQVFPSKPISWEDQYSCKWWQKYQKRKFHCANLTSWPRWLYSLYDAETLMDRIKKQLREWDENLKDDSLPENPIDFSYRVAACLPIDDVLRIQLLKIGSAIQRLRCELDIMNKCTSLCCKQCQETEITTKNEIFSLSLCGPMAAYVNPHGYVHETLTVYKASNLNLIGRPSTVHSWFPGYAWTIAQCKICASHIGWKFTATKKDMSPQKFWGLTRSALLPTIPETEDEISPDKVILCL
Briefly: Western blot of cereblon in splenic T cells / splenocytes of mice treated orally with a single dose. Format: in vivo. As to conditions: single oral dose of 75 mg/kg. As for the experimental part: FIG. 24 is a graph of results from Western blots from purified splenic T cells of mice treated orally with a single dose of 75 mg/kg SM2-145. Three mice were obtained from each time point (1, 6, 12, and 24 hrs) after treatment.
FIG. 25 contains a Western blot analysis of purified T cells from mice treated orally with a single dose of 75 mg/kg EC2-035 and EC2-134.
Background: Immunoblotting shows a protein as a band on a membrane.

A further assay has as its system c-Myc. Briefly: Western blot of c-Myc in activated human T cells. Format: cell-based. Particulars: human T cells activated by anti-CD3ε/anti-CD28. The text has this: (§1) On the right is a schematic diagram of CRBN/DDB1/CUL4A and ubiquitin degrading function. […] DMSO was used in these experiments as a vehicle control. […] CRBN is shown for human T cells and vinculin loading control of human and mouse T cells are provided. […] Results shown are representative of three independent experiments.

Assay [2] concerns the target T3, cereblon (CRBN) (Homo sapiens, UniProt Q96SW2). As to the kind of experiment: Kd and % inhibition from FI. As to conditions: for inhibition at 200 µM: read-out: % inhibition @ 200 uM from *FI. Format: binding.
The target in assay [3] is T3, cereblon (CRBN). As to the kind of experiment: Kd from ITC. Format: binding.
The target in assay [4] is T4, cereblon (CRBN) (Mus musculus, UniProt Q8C7D2).
T4 construct: endogenous in cells; host or cells: mouse CD8+ T cells
T4 sequence (Q8C7D2 1-445): T2 sequence (Q8C7D2 1-445)
As to the kind of experiment: Western blot of cereblon (CRBN) levels in mouse CD8+ T cells. The format is cell-based. As to conditions: 24 hours of treatment.

A further assay deals with T5, BRD4 (Mus musculus, UniProt Q9ESU6).
T5 construct: endogenous in cells
As to the kind of experiment: Western blot of BRD4 in activated mouse T cells. Format: cell-based. Particulars: mouse T cells activated with anti-CD3ε/anti-CD28.
Description: as §1

Where [5] appears, read: 24 h, 10nM, human T cells, 24 hours.
Setting [6] is: FI, read-out: Kd (FI) (converted).
Where [7] appears, read: cell does not state FI or ITC, read-out: Kd (A) FI/ITC.

A word on the inhibition: it is the share of the control response that was lost under treatment.

T3 sequence (Q96SW2 whole entry, species assumed): as the sequence (Q96SW2 whole entry) above

For `Cc1nc2cccc(N)c2c(=O)n1C1CCC(=O)NC1=O` (centres unmarked) [CC122, avadomide, reference compound], the “T cell function (IL-2 and IFN-γ after anti-CD3 (OKT3) activation)” value in assay [1] is “actively increasing T cell function”.

Turning to `O=C1CCC(N2Cc3c(NCc4ccc(CNc5cccc6c5CN(C5CCC(=O)NC5=O)C6=O)cc4)cccc3C2=O)C(=O)N1` (centres unmarked) [EC2-035, 3,3′-(((1,4-Phenylenebis(methylene))bis(azanediyl))bis(1-oxoisoindoline-4,2-diyl))bis(piperidine-2,6-dione)], the remaining activity at 10 µM on CRBN stood at 99.7%. In addition, at CRBN (setting [5]), the remaining activity at 0.01 µM turned out to be 2.32%. Moreover, the “cereblon levels in purified splenic T cells” value on cereblon is “sustained reduction in cereblon levels at 6, 9 and 12 hours”.

With `Cc1sc2c(c1C)C(c1ccc(Cl)cc1)=N[C@@H](CC(=O)OC(C)(C)C)c1nnc(C)n1-2` [JQ1], the c-Myc suppression result with c-Myc is given as “Suppression of c-Myc is evident”.

With `O=C(COc1cccc2c1C(=O)N(C1CCC(=O)NC1=O)C2=O)NCCOCCOCCNC(=O)COc1cccc2c1C(=O)N(C1CCC(=O)NC1=O)C2=O` (centres unmarked) [SM2-048], the results for the Kd on cereblon (CRBN) [2] (setting [6]) and on cereblon (CRBN) [3] were 11.3 µM and 12.3 ± 0.4 µM, respectively. The inhibition at 200 µM at cereblon (CRBN) [2] was found to be 68.2 ± 3.33%. In addition, at CRBN, the remaining activity at 10 µM was determined as 15.8%. The remaining activity at 0.01 µM at CRBN (setting [5]) is 99.5%. For the same compound, the “CRBN expression (Western blot)” value on CRBN (anti-CD3/anti-CD28 stimulated human T cells, 0.1, 1, and 10 μM) was “significant reduction in CRBN expression”.

With `O=C1CCC(N2Cc3c(CCCOCCCc4cccc5c4CN(C4CCC(=O)NC4=O)C5=O)cccc3C2=O)C(=O)N1` (centres unmarked) [SM2-144, 3,3′-((Oxybis(propane-3,1-diyl))bis(1-oxoisoindoline-4,2-diyl))bis(piperidine-2,6-dione)], the Kd at cereblon (CRBN) [2] (setting [6]) was 5.88 µM; on cereblon (CRBN) [3], 4.4 ± 1.4 µM. Besides, the inhibition at 200 µM on cereblon (CRBN) [2] is 73.9 ± 14.9%. Moreover, at CRBN, the remaining activity at 10 µM is 3.05%. Further, the remaining activity at 0.01 µM on CRBN (setting [5]) came out at 24.1%.

`O=C(CCc1cccc2c1CN(C1CCC(=O)NC1=O)C2=O)NCCOCCOCCNC(=O)CCc1cccc2c1CN(C1CCC(=O)NC1=O)C2=O` (centres unmarked) [SM3-005, N,N′-((Ethane-1,2-diylbis(oxy))bis(ethane-2,1-diyl))bis(3-(2-(2,6-dioxopiperidin-3-yl)-1-oxoisoindolin-4-yl)propanamide)]: the Kd at cereblon (CRBN) [2] (setting [6]) was 15 ± 0.97 µM. Besides, the inhibition at 200 µM at cereblon (CRBN) [2] stood at 72.8 ± 1.38%. In addition, on CRBN, the remaining activity at 10 µM came out at 91.1%. For the same compound, the remaining activity at 0.01 µM at CRBN (setting [5]) is 80.6%.

For the compound `O=C(/C=C/c1cccc2c1CN(C1CCC(=O)NC1=O)C2=O)NCCOCCNC(=O)/C=C/c1cccc2c1CN(C1CCC(=O)NC1=O)C2=O` (centres unmarked) [SM3-006, (2E,2′E)-N,N′-(Oxybis(ethane-2,1-diyl))bis(3-(2-(2,6-dioxopiperidin-3-yl)-1-oxoisoindolin-4-yl)acrylamide)], the Kd on cereblon (CRBN) [2] (setting [6]) was 15.2 ± 1.52 µM. Moreover, at cereblon (CRBN) [2], the inhibition at 200 µM amounted to 72.9 ± 1.19%. In addition, at CRBN, the remaining activity at 10 µM was 85.3%. At CRBN (setting [5]), the remaining activity at 0.01 µM was found to be 110%.

Regarding `O=C(/C=C/c1cccc2c1CN(C1CCC(=O)NC1=O)C2=O)NCCOCCOCCOCCNC(=O)/C=C/c1cccc2c1CN(C1CCC(=O)NC1=O)C2=O` (centres unmarked) [SM3-009, (2E,2′E)-N,N′-(((Oxybis(ethane-2,1-diyl))bis(oxy))bis(ethane-2,1-diyl))bis(3-(2-(2,6-dioxopiperidin-3-yl)-1-oxoisoindolin-4-yl)acrylamide)], at cereblon (CRBN) [2] (setting [6]), the Kd was 8.21 ± 1.22 µM. The inhibition at 200 µM on cereblon (CRBN) [2] was found to be 83.88 ± 0.28%. The remaining activity at 10 µM at CRBN was found to be 59.1%. At CRBN (setting [5]), the remaining activity at 0.01 µM turned out to be 108%.

As for `O=C(CCc1cccc2c1CN(C1CCC(=O)NC1=O)C2=O)NCCOCCNC(=O)CCc1cccc2c1CN(C1CCC(=O)NC1=O)C2=O` (centres unmarked) [SM3-010, N,N′-(Oxybis(ethane-2,1-diyl))bis(3-(2-(2,6-dioxopiperidin-3-yl)-1-oxoisoindolin-4-yl)propanamide)], the Kd on cereblon (CRBN) [2] (setting [6]) was 14.3 ± 0.52 µM. In addition, the inhibition at 200 µM on cereblon (CRBN) [2] worked out at 72.4 ± 0.84%. Further, the remaining activity at 10 µM on CRBN worked out at 86.9%. Further, at CRBN (setting [5]), the remaining activity at 0.01 µM worked out at 119%.

Take `O=C(CCc1cccc2c1CN(C1CCC(=O)NC1=O)C2=O)NCCOCCOCCOCCNC(=O)CCc1cccc2c1CN(C1CCC(=O)NC1=O)C2=O` (centres unmarked) [SM3-011, N,N′-(((Oxybis(ethane-2,1-diyl))bis(oxy))bis(ethane-2,1-diyl))bis(3-(2-(2,6-dioxopiperidin-3-yl)-1-oxoisoindolin-4-yl)propanamide)]: the Kd at cereblon (CRBN) [2] (setting [6]) is 14.8 ± 1.08 µM. For the same compound, on cereblon (CRBN) [2], the inhibition at 200 µM is 73.39 ± 0.71%. In addition, on CRBN, the remaining activity at 10 µM turned out to be 85.4%. Also, the remaining activity at 0.01 µM on CRBN (setting [5]) came out at 102%.

On to `COCCOCCCc1cccc2c1CN(C1CCC(=O)NC1=O)C2=O` (centres unmarked) [SM3-095, 3-(4-(3-(2-Methoxyethoxy)propyl)-1-oxoisoindolin-2-yl)piperidine-2,6-dione], for which, at cereblon (CRBN) [4], the “cereblon (CRBN) levels (Western blot)” value is on record as “not”.

In the case of `O=C(COc1cccc2c1C(=O)N(C1CCC(=O)NC1=O)C2=O)NCCCCNC(=O)COc1cccc2c1C(=O)N(C1CCC(=O)NC1=O)C2=O` (centres unmarked) [SY2-060, N,N′-(Butane-1,4-diyl)bis(2-((2-(2,6-dioxopiperidin-3-yl)-1,3-dioxoisoindolin-4-yl)oxy)acetamide)], on cereblon (CRBN) [2], the inhibition at 200 µM was 1.52 ± 1.91%. Further, the remaining activity at 0.01 µM on CRBN (24 h) was determined as 104%.

In the case of `O=C1CCC(N2Cc3c(C#CCOCCOCC#Cc4cccc5c4CN(C4CCC(=O)NC4=O)C5=O)cccc3C2=O)C(=O)N1` (centres unmarked) [SY4-065], the “Kd (A) FI/ITC” value at cereblon (CRBN) [2] (cell does not state FI or ITC) is on record as “n.b”. For the same compound, the remaining activity at 10 µM on CRBN turned out to be 136%. For the same compound, the remaining activity at 0.01 µM on CRBN (setting [5]) worked out at 1.75%.

Consider `O=C1CC[C@H](N2Cc3c(C#CCOCCOCC#Cc4cccc5c4CN([C@H]4CCC(=O)NC4=O)C5=O)cccc3C2=O)C(=O)N1` [XS01-008B2, (3S,3'S)-3,3′-(((Ethane-1,2-diylbis(oxy))bis(prop-1-yne-3,1-diyl))bis(1-oxoisoindoline-4,2-diyl))bis(piperidine-2,6-dione)], for which the Kd at cereblon (CRBN) [2] (setting [6]) is 2.53 ± 1.53 µM. The remaining activity at 0.01 µM on CRBN (setting [5]) turned out to be 11.8%.

In the case of `O=C1CCC(NC(=O)CCCCCCCCC(=O)NC2CCC(=O)NC2=O)C(=O)N1` (centres unmarked) [XS01-039, N^1,N^10-Bis(2,6-dioxopiperidin-3-yl)decanediamide], the Kd on cereblon (CRBN) [2] (setting [7]) was 161 ± 19.3 µM. Moreover, the remaining activity at 0.01 µM came to 92.9% on CRBN (10nM, B2) and 61.3% on CRBN (setting [5]). Further, the remaining activity at 10 µM at CRBN (B2) was 13.1%; at CRBN, 0.98%.

For `O=C1CCC(NC(=O)c2cccc(NC(=O)CCCC(=O)Nc3cccc(C(=O)NC4CCC(=O)NC4=O)c3)c2)C(=O)N1` (centres unmarked) [XS01-074, N^1,N^5-Bis(3-((2,6-Dioxopiperidin-3-yl)carbamoyl)phenyl)glutaramide], on cereblon (CRBN) [2] (setting [7]), the Kd was 187 ± 16.2 µM. Further, the remaining activity at 10 µM on CRBN came out at 25.9%.

As to `Cc1sc2c(c1C)C(c1ccc(Cl)cc1)=N[C@@H](CC(=O)NCCCCNC(=O)COc1cccc3c1C(=O)N(C1CCC(=O)NC1=O)C3=O)c1nnc(C)n1-2` (some centres unmarked) [dBET1], the “BRD4 expression / degradation” value on BRD4 is “degrades BRD4”. Further, the c-Myc suppression result in the assay with c-Myc is on record as “Suppression of c-Myc is evident”.
